Entries after “also recorded” stand apart in the source; their conditions may differ. Where two headings read alike, the source gives them in different places. Each block holds one compound with its values, some of them ahead of it.
Key:
[1] = Phase 1 open-label drug interaction study: effect of ketoconazole on the pharmacokinetics of NBI-98854 in healthy subjects; format: in vivo, human; conditions: for half-life: read-out: t1/2 Mean (SD) (converted); for CL/F Mean (SD): analyte NBI-98854; for AUC(0-inf): read-out: AUC0-∞ Mean (SD); for Cmax: read-out: Cmax Mean (SD)
Method: All subjects received the same treatment. […] Subjects were given meals upon completion of study assessments/dosing and at regular meal times during their stay in the research unit. […] Blood specimens to determine ketoconazole plasma concentrations were collected predose through Day 9. Safety and tolerability was assessed through Day 10. […] The tmax was analyzed using non-parametric methods. […] Safety data were summarized using descriptive statistics.

human VMAT1 transporter = target: T1, human VMAT1 transporter (Homo sapiens, UniProt P54219); test: Uptake in cells expressing VMAT1; format: cell-based; conditions: concentrations up to 10 μM
T1 construct: expressed in transfected cells
T1 sequence (P54219 1-525): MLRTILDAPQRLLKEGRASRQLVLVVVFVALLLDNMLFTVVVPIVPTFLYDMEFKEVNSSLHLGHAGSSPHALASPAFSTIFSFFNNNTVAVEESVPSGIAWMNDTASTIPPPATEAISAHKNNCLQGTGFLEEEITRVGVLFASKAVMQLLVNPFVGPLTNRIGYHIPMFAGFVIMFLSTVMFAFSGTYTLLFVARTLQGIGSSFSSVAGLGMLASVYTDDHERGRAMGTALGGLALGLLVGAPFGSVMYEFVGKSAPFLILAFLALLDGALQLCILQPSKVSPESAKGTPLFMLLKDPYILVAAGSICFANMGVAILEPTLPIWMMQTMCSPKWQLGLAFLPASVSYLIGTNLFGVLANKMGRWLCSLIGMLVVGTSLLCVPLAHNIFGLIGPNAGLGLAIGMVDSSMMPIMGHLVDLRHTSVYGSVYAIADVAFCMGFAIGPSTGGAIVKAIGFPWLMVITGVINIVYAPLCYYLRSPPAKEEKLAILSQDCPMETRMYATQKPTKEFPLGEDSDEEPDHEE

[2] = test system: more than 80 targets (GPCRs, cell-surface monoamine transporters, ion channels including HERG); test: Cerep multi-target activity screen; conditions: broad panel screen
[3] = Safety and tolerability in the Phase 1 ketoconazole interaction study; format: in vivo; conditions: for Subjects with TEAE: Constipation / Subjects with TEAE: Dizziness postural / Subjects with TEAE: Gastrointestinal Disorders / Subjects with TEAE: Headache / Subjects with TEAE: Injury, Poisoning and Procedural Complications / Subjects with TEAE: Nausea / Subjects with TEAE: Nervous System Disorders / Subjects with TEAE: Procedural dizziness / Subjects with treatment-emergent adverse event: Overall: N = 24
Method: This was a Phase 1, single-center, open-label, drug interaction study conducted in 24 healthy male and female subjects.
All subjects received the same treatment. Subjects received a single dose of 50 mg NBI-98854 on Days 1 and 6 at approximately 0800 hours. In addition, subjects received 200 mg ketoconazole twice daily (bid) on Days 5 through 9 at approximately 0800 and 2000 hours. Subjects were required to fast overnight from approximately 10 hours before until 4 hours after NBI-98854 dose on Days 1 and 6. Subjects were given meals upon completion of study assessments/dosing and at regular meal times during their stay in the research unit.
TEAEs are summarized below. There were no pretreatment AEs. […] Five subjects (20.8%) experienced 6 AEs during the study; all AEs occurred after the initial treatment with NBI-98854 alone. […] The only AE that occurred in >1 subject was headache (2 subjects, 8.3%). […] Two events were considered possibly related to study drug, 1 event of headache and the event of dizziness postural. The other event of headache was considered unlikely related to study drug.

[4] = NBI-98854 (50 mg) + Ketoconazole (200 mg)
[5] = both sexes, human, oral, analyte NBI-98854 in plasma, NBI-98854 (50 mg) alone, N = 24
[6] = both sexes, human, oral, analyte NBI-98854 in plasma, NBI-98854 (80 mg) + Ketoconazole (200 mg), N = 24

- concentration at 1 h ([1]; both sexes, human, plasma, oral, 200 mg ketoconazole bid, Days 5 to 9 at 1 hour postdose, read-out: Mean plasma concentrations of ketoconazole): 1640 to 5180 ng/mL
SMILES: CC(=O)N1CCN(c2ccc(OCC3COC(Cn4ccnc4)(c4ccc(Cl)cc4Cl)O3)cc2)CC1 (centres unmarked) [Ketoconazole, ketoconazole, reference compound]

SMILES: COc1cc2c(cc1OC)[C@H]1C[C@@H](O)[C@H](CC(C)C)CN1CC2 [NBI-98782, (2R, 3R,11bR)-3-isobutyl-9,10-dimethoxy-1,3,4,6,7,11b-hexahydro-2H-pyrido[2,1-a]isoquinolin-2-ol]
- half-life ([1]; both sexes, human, plasma, oral, 50 mg): 18 h
- inhibition of uptake through VMAT1 (human VMAT1 transporter; listed as R,R,R-DHTBZ): no significant inhibitory activity; also recorded: no significant effect
- affinity for more than 80 binding sites, including receptors, monoamine transporters, and ion channels [2]: little to no affinity

SMILES: COc1cc2c(cc1OC)[C@H]1C[C@@H](OC(=O)[C@@H](N)C(C)C)[C@H](CC(C)C)CN1CC2 [NBI-98854, (S)-2-amino-3-methyl-butyric acid (2R, 3R,11bR)-3-isobutyl-9,10-dimethoxy-1,3,4,6,7,11b-hexahydro-2H-pyrido[2,1-a]isoquinolin-2-yl ester]
- Subjects with headache (only AE in >1 subject) ([3]; 2 subjects): 8.3%
- Subjects with TEAE: Constipation [3, 4]: 0 n, %
- Subjects with TEAE: Dizziness postural [3, 4]: 0 n, %
- Subjects with TEAE: Gastrointestinal Disorders [3, 4]: 0 n, %
- Subjects with TEAE: Headache [3, 4]: 0 n, %
- Subjects with TEAE: Injury, Poisoning and Procedural Complications [3, 4]: 0 n, %
- Subjects with TEAE: Nausea [3, 4]: 0 n, %
- Subjects with TEAE: Nervous System Disorders [3, 4]: 0 n, %
- Subjects with TEAE: Procedural dizziness [3, 4]: 0 n, %
- Subjects with treatment-emergent adverse event: Overall [3, 4]: 0 n, %
- Subjects with TEAE: Constipation ([3]; NBI-98854 (50 mg)): 1 (4.2) n, %
- Subjects with TEAE: Dizziness postural ([3]; NBI-98854 (50 mg)): 1 (4.2) n, %
- Subjects with TEAE: Gastrointestinal Disorders ([3]; NBI-98854 (50 mg)): 2 (8.3) n, %
- Subjects with TEAE: Headache ([3]; NBI-98854 (50 mg)): 2 (8.3) n, %
- Subjects with TEAE: Injury, Poisoning and Procedural Complications ([3]; NBI-98854 (50 mg)): 1 (4.2) n, %
- Subjects with TEAE: Nausea ([3]; NBI-98854 (50 mg)): 1 (4.2) n, %
- Subjects with TEAE: Nervous System Disorders ([3]; NBI-98854 (50 mg)): 3 (12.5) n, %
- Subjects with TEAE: Procedural dizziness ([3]; NBI-98854 (50 mg)): 1 (4.2) n, %
- Subjects with treatment-emergent adverse event: Overall ([3]; NBI-98854 (50 mg)): 5 (20.8) n, %
- Tolerability ([3]; administered alone and concomitantly with ketoconazole in healthy volunteers): well tolerated
- Subjects who experienced AEs during the study ([3]; all AEs after the initial treatment with NBI-98854 alone, onset Day 1 or 2, five subjects, 6 AEs): 20.8%
- 12-lead ECGs ([3]; during the study): no abnormal ECGs that were assessed as clinically significant
- Body weight changes ([3]; during the study): no important changes in body weight
- Physical examination findings ([3]; during the study): No abnormal physical examination findings
- Vital signs including orthostatic changes ([3]; postdose): No clinically relevant postdose mean vital signs changes
- Clinical laboratory values (hematology, serum chemistry, urinalysis) ([3]; pre- and postdose): no results considered clinically significant
- Deaths, SAEs, discontinuations due to an AE ([3]; whole study): no deaths, SAEs, or discontinuations due to an AE
- Intensity of AEs ([3]; whole study): mild in intensity
- CL/F Mean (SD) ([1]; NBI-98854 (50 mg) alone, N = 24): 16.3 (5.94) L/hr
- CL/F Mean (SD) ([1]; NBI-98854 (80 mg) + Ketoconazole (200 mg), N = 24): 7.96 (2.75) L/hr
- Tlag Mean (SD) ([1]; analyte NBI-98854 in plasma, NBI-98854 (50 mg) alone, N = 24): 0.11 (0.13) hours
- Tlag Mean (SD) ([1]; analyte NBI-98854 in plasma, NBI-98854 (80 mg) + Ketoconazole (200 mg), N = 24): 0.02 (0.07) hours
- AUC(0-inf) [1, 5]: 3470 ng·h/mL
- Cmax [1, 5]: 425 ng/mL
- AUC(0-inf) [1, 6]: 7340 ng·h/mL
- Cmax [1, 6]: 624 ng/mL
- MRT ([1]; both sexes, human, oral, analyte NBI-98854 in plasma, NBI-98854 (80 mg) + Ketoconazole (200 mg), N = 24, read-out: MRT Mean (SD)): 22 h
- half-life [1, 6]: 20 h
- AUC(0-t) ([1]; both sexes, human, plasma, oral, 50 mg, analyte NBI-98854 in plasma, NBI-98854 (50 mg) alone, N = 24, read-out: AUC0-24 Mean (SD)): 2580 ng·h/mL
- AUC(0-t) ([1]; both sexes, human, plasma, oral, 50 mg, analyte NBI-98854 in plasma, NBI-98854 (50 mg) alone, N = 24, read-out: AUC0-tlast Mean (SD)): 3420 ng·h/mL
- AUC(0-t) ([1]; both sexes, human, plasma, oral, analyte NBI-98854 in plasma, NBI-98854 (80 mg) + Ketoconazole (200 mg), N = 24, read-out: AUC0-24 Mean (SD)): 4820 ng·h/mL
- AUC(0-t) ([1]; both sexes, human, plasma, oral, analyte NBI-98854 in plasma, NBI-98854 (80 mg) + Ketoconazole (200 mg), N = 24, read-out: AUC0-tlast Mean (SD)): 7100 ng·h/mL
- inhibition of uptake through VMAT1 (human VMAT1 transporter; listed as VBZ): no significant inhibitory activity; also recorded: no significant effect
- affinity for more than 80 binding sites, including receptors, monoamine transporters, and ion channels [2]: little to no affinity

SMILES: COc1cc2c(cc1OC)C1CC(=O)C(CC(C)C)CN1CC2 (centres unmarked) [TBZ, Tetrabenazine, reference compound]
- inhibition of uptake through VMAT1 (human VMAT1 transporter): no significant inhibitory activity; also recorded: no significant effect

SMILES: COC(=O)[C@H]1[C@H]2C[C@@H]3c4[nH]c5cc(OC)ccc5c4CCN3C[C@H]2C[C@@H](OC(=O)c2cc(OC)c(OC)c(OC)c2)[C@@H]1OC [reserpine, reference compound]
- inhibition of uptake through VMAT1 (human VMAT1 transporter): substantially inhibited uptake through VMAT1
